Measured values published in article PMC7414198, “Genomic and enzymatic evidence of acetogenesis by anaerobic methanotrophic archaea” (Nature Communications, 2020).
Where two headings read alike, the source gives them in different places.

How the values were obtained:
[1] = test system: acetyl-CoA synthetase (Acs) from ANME-2a; conditions: acetyl-CoA-forming direction; concentrations of ATP and CoA not given
[2] = test system: T1, ADP-forming acetate-CoA ligase (Acd) from ANME-2a; assay: DTNB assay of HSCoA release, […] nm; type: biochemical, ANME-2 cluster archaeon (ANME-2a, uncultured); conditions: acetate-forming direction; 2 mM ADP, 40 mM K3PO4, 1 mM MgCl2, 20 mM Tris-HCl pH 8.0
T1 construct: alpha (55 kDa) and beta (25 kDa) subunits, codon-optimised synthetic genes in pET-28a (NdeI/BamHI and BamHI/SalI, RBS before beta), E. coli BL21(DE3)-groEL, Ni-NTA purified

[3] = test system: T2, acetyl-CoA synthetase (Acs) from ANME-2a; assay: DTNB assay of HSCoA release, […] nm; type: biochemical, ANME-2 cluster archaeon (ANME-2a, uncultured); conditions: acetate-forming direction; 2 mM AMP, 2 mM PPi, 1.25 M KCl, 1 mM MgCl2, 20 mM Tris-HCl pH 8.0
T2 construct: codon-optimised synthetic gene in pET-28a (NdeI/BamHI), E. coli Rosetta(DE3), Ni-NTA purified, 70 kDa

Km [1] [µM] | Km [2] [µM] | Km [3] [µM] | Compound
490 | – | – | CC(=O)O [acetate]
– | 31.3 | 8.5 | CC(=O)SCCNC(=O)CCNC(=O)[C@H](O)C(C)(C)COP(=O)(O)OP(=O)(O)OC[C@H]1O[C@@H](n2cnc3c(N)ncnc32)[C@H](O)[C@@H]1OP(=O)(O)O [acetyl-CoA]
